# Measured values taken from patent US12037354B2, “Cyclic pantetheine derivatives and uses thereof” (VectivBio Comet AG, priority 2018, dated 2024).
# Read-outs that look alike come from different tables or passages of the source.
# Test system: HepG2 cells
# Experiment: Glucose uptake Glo Assay, Example 821
# Assay type: cell-based
# Conditions: for activation at 10 µM / activation at 50 µM: Homo sapiens, 20 min, read-out: % increase in Glucose Uptake
# Experimental: The effect of compounds from the present disclosure on glucose uptake was determined in HepG2 cells (ATCC, HB-8065) using the glucose uptake Glo Assay Kit (Promega, 11343 according to manufacturer instructions. HepG2 cells were cultured in complete DMEM-glucose media (Gibco) supplemented with 10% FBS (37° C. incubator with 5% CO2) and seeded in 96-well plates at 30,000 cells/well. After removing the complete media, 100 μL/well of serum-free, high-glucose DMEM media were added to the wells and incubated overnight (37° C. incubator with 5% CO2). Media was then replaced with 100 μl/well DPBS containing 0.6°/o BSA and starved for 1 hour. Next, DPBS was removed and 45 μl/well of insulin (100 nM) or compounds (10 μM-50 μM) were added to the wells and incubated for 10 minutes (37° C. incubator with 5% CO2). Insulin and compounds were prepared in DPBS with 0.6% BSA with a final DMSO concentration of 0.1%. Next, 5 μl of 2DG (10 mM) in DPBS were added per well and allowed to incubate for 20 minutes followed by addition of 25 μl stop buffer. 37.5 μl of the mixture were then transferred to a new plate and 12.5 μl of Neutralization buffer added to the wells. After, 50 μl of 2DG6P detection Reagent were added and incubated for 0.5-1 hour at room temperature. Luminescence was measured with 0.3-1 second integration on a luminometer.
smiles,measurement,setting,value
COC(=O)CC(SCCNC(=O)CCNC(=O)[C@@H]1OP(=O)(OCC[N+](C)(C)C)OCC1(C)C)C(=O)OC (stereo partly shown) [Compound 371],activation at 10 µM,10 uM (Example 969),≥ 30%
C/C=C/C(=O)SCCNC(=O)CCNC(=O)[C@@H]1OP(=O)(N[C@@H](C)C(=O)O)OCC1(C)C (stereo partly shown) [Compound 145],activation at 10 µM,10 uM (Example 970),≥ 30%
CC1(C)COP(=O)(O)O[C@H]1C(=O)NCCC(=O)NCCSC(=O)CCC(=O)O [Compound 1],activation at 10 µM,10 uM (Example 968),≥ 30%
CC(=O)NCCCC(=O)SCCNC(=O)CCNC(=O)[C@@H]1OC(C)(C)OCC1(C)C [Compound 853],% increase in Glucose Uptake,10 uM (Example 973),≥30%
same,activation at 10 µM,10 uM,≥ 30%
COC(=O)[C@H](C)NP1(=O)OCC(C)(C)[C@H](C(=O)NCCC(=O)NCCSC(=O)CC(=O)CC(=O)CCC(=O)O)O1 (stereo partly shown) [Compound 185],activation at 50 µM,50 uM (Example 970),≥ 30%
C[C@@H](O)CC(=O)SCCNC(=O)CCNC(=O)[C@@H]1OC(=O)OCC1(C)C [Compound 485],activation at 50 µM,50 uM,≥ 10%
same,% increase in Glucose Uptake,concentration tested 50 uM,≥10%
COC(=O)C(=O)SCCNC(=O)CCNC(=O)[C@@H]1OC(C)(C)OCC1(C)C [Compound 856],% increase in Glucose Uptake,10 uM (Example 973),≥30%
same,activation at 10 µM,10 uM,≥ 30%
CC1(C)COP(=O)(O)O[C@H]1C(=O)NCCC(=O)NCCSC(=O)/C=C/C(=O)O [Compound 20],activation at 50 µM,50 uM,≥ 30%
same,% increase in Glucose Uptake,concentration tested 50 uM,≥30%
"COC(=O)CCC(=O)SCCNC(=O)CCNC(=O)[C@@H]1OC(C)(C)OCC1(C)C [Compound 852, methyl 4-oxo-4-[[2-(3-[[(4R)-2,2,5,5-tetramethyl-1,3-dioxan-4-yl]formamido]propanamido)ethyl]sulfanyl]butanoate]",activation at 50 µM,50 uM,≥ 20%
same,% increase in Glucose Uptake,concentration tested 50 uM,≥20%
COP1(=O)OCC(C)(C)[C@H](C(=O)NCCC(=O)NCCSC(CC(=O)OCC[N+](C)(C)C)C(=O)O)O1 (stereo partly shown) [Compound 397],activation at 10 µM,10 uM (Example 969),≥ 20%
COC(=O)CCC(=O)SCCNC(=O)CCNC(=O)[C@@H]1OP(=O)(OCc2ccccc2)OCC1(C)C (stereo partly shown) [Compound 863],activation at 50 µM,50 uM,≥ 10%
same,% increase in Glucose Uptake,concentration tested 50 uM,≥10%
C/C=C/C(=O)SCCNC(=O)CCNC(=O)[C@@H]1OP(=O)(N[C@@H](C)C(=O)OC)OCC1(C)C (stereo partly shown) [Compound 144],activation at 50 µM,50 uM (Example 969),≥ 30%
CC1(C)OCC(C)(C)[C@H](C(=O)NCCC(=O)NCCSC(=O)C(=O)O)O1 [Compound 868],% increase in Glucose Uptake,10 uM (Example 973),≥30%
same,activation at 10 µM,10 uM,≥ 30%
C/C=C/C(=O)CC(=O)SCCNC(=O)CCNC(=O)[C@@H]1OP(=O)(OCc2ccccc2)OCC1(C)C (stereo partly shown) [Compound 867],activation at 10 µM,10 uM,≥ 20%
same,% increase in Glucose Uptake,concentration tested 10 uM,≥20%
C/C=C/C(=O)SCCNC(=O)CCNC(=O)[C@@H]1OP(=O)(OC)OCC1(C)C (stereo partly shown) [Compound 141],activation at 50 µM,50 uM (Example 969),≥ 30%
COC(=O)C(CC(=O)O)SCCNC(=O)CCNC(=O)[C@@H]1OC(=O)OCC1(C)C (stereo partly shown) [Compound 498],activation at 50 µM,50 uM (Example 971),≥ 10%
"CC(=O)CC(=O)SCCNC(=O)CCNC(=O)[C@@H]1OC(C)(C)OCC1(C)C [Compound 860, N-[2-[(3-oxobutanoyl)sulfanyl]ethyl]-3-[[(4R)-2,2,5,5-tetramethyl-1,3-dioxan-4-yl]formamido]propanamide]",activation at 50 µM,50 uM,≥ 10%
same,% increase in Glucose Uptake,concentration tested 50 uM,≥10%
COC(=O)CC(SCCNC(=O)CCNC(=O)[C@@H]1OP(=O)(O)OCC1(C)C)C(=O)OCC[N+](C)(C)C (stereo partly shown) [Compound 57],activation at 50 µM,50 uM (Example 971),≥ 20%
"COC(=O)/C=C/C(=O)SCCNC(=O)CCNC(=O)[C@@H]1OC(C)(C)OCC1(C)C [Compound 858, methyl (2E)-4-oxo-4-[[2-(3-[[(4R)-2,2,5,5-tetramethyl-1,3-dioxan-4-yl]formamido]propanamido)ethyl]sulfanyl]but-2-enoate]",% increase in Glucose Uptake,10 uM (Example 973),≥30%
same,activation at 10 µM,10 uM,≥ 30%
CC1(C)COP(=O)(OCc2ccccc2)O[C@H]1C(=O)NCCC(=O)NCCS (stereo partly shown) [Compound 862],activation at 10 µM,10 uM,≥ 20%
same,activation at 50 µM,50 uM,≥ 10%
same,% increase in Glucose Uptake,concentration tested 10 uM,≥20%
same,% increase in Glucose Uptake,concentration tested 50 uM,≥10%
C[C@@H](O)CC(=O)SCCNC(=O)CCNC(=O)[C@@H]1OP(=O)(O)OCC1(C)C [Compound 39],activation at 50 µM,50 uM,≥ 10%
same,% increase in Glucose Uptake,concentration tested 50 uM,≥10%
CC(=O)SCCNC(=O)CCNC(=O)[C@@H]1OP(=O)(O)OCC1(C)C [Compound 2],activation at 10 µM,10 uM (Example 970),≥ 10%
COC(=O)C(CC(=O)OCC[N+](C)(C)C)SCCNC(=O)CCNC(=O)[C@@H]1OP(=O)(Oc2ccccc2)OCC1(C)C (stereo partly shown) [Compound 393],activation at 10 µM,10 uM (Example 970),≥ 30%
CCOP1(=O)OCC(C)(C)[C@H](C(=O)NCCC(=O)NCCS)O1 (stereo partly shown) [Compound 865],activation at 10 µM,10 uM,≥ 20%
same,% increase in Glucose Uptake,concentration tested 10 uM,≥20%
COC(=O)CC(SCCNC(=O)CCNC(=O)[C@@H]1OC(=O)OCC1(C)C)C(=O)OCC[N+](C)(C)C (stereo partly shown) [Compound 503],activation at 50 µM,50 uM (Example 972),≥ 20%
COC(=O)C(CC(=O)O)SCCNC(=O)CCNC(=O)[C@@H]1OP(=O)(OC)OCC1(C)C (stereo partly shown) [Compound 382],activation at 50 µM,50 uM (Example 970),≥ 30%
CCOC(=O)CC(SCCNC(=O)CCNC(=O)[C@@H]1OP(=O)(OC)OCC1(C)C)C(=O)OCC[N+](C)(C)C (stereo partly shown) [Compound 410],activation at 50 µM,50 uM (Example 969),≥ 30%
CC(CC(=O)SCCNC(=O)CCNC(=O)[C@@H]1OP(=O)(O)OCC1(C)C)O[C@H](CC(=O)[O-])C[N+](C)(C)C (stereo partly shown) [Compound 47],activation at 50 µM,50 uM (Example 966),≥ 10%
CCOC(=O)CCC(=O)CC(=O)CC(=O)SCCNC(=O)CCNC(=O)[C@@H]1OP(=O)(OCC[N+](C)(C)C)OCC1(C)C (stereo partly shown) [Compound 214],activation at 10 µM,10 uM (Example 972),≥ 20%
CC1(C)OCC(C)(C)[C@H](C(=O)NCCC(=O)NCCSSCCNC(=O)CCNC(=O)[C@@H]2OC(C)(C)OCC2(C)C)O1 [Compound 870],activation at 10 µM,10 uM,≥ 30%
same,% increase in Glucose Uptake,concentration tested 10 uM,≥30%
CC1(C)COP(=O)(O)O[C@H]1C(=O)NCCC(=O)NCCS [Compound 869],activation at 10 µM,10 uM,≥ 10%
same,% increase in Glucose Uptake,concentration tested 10 uM,≥10%
CCOC(=O)CCC(=O)CC(=O)CC(=O)SCCNC(=O)CCNC(=O)[C@@H]1OP(=O)(OC)OCC1(C)C (stereo partly shown) [Compound 211],activation at 50 µM,50 uM (Example 969),≥ 30%
"CCC(=O)SCCNC(=O)CCNC(=O)[C@@H]1OC(C)(C)OCC1(C)C [Compound 861, N-[2-(propanoylsulfanyl)ethyl]-3-[[(4R)-2,2,5,5-tetramethyl-1,3-dioxan-4-yl]formamido]propanamide]",activation at 50 µM,50 uM,≥ 20%
same,% increase in Glucose Uptake,concentration tested 50 uM,≥20%
CCOP1(=O)OCC(C)(C)[C@H](C(=O)NCCC(=O)NCCSC(=O)CC(=O)CC(=O)CCC(=O)O)O1 (stereo partly shown) [Compound 183],activation at 10 µM,10 uM (Example 970),≥ 30%
C[C@@H](O)CC(=O)SCCNC(=O)CCNC(=O)[C@@H]1OP(=O)(OCc2ccccc2)OCC1(C)C (stereo partly shown) [Compound 864],activation at 50 µM,50 uM,≥ 20%
same,% increase in Glucose Uptake,concentration tested 50 uM,≥20%
COP1(=O)OCC(C)(C)[C@H](C(=O)NCCC(=O)NCCSC(=O)CC(=O)/C=C/C(=O)O)O1 (stereo partly shown) [Compound 117],activation at 10 µM,10 uM (Example 970),≥ 30%
COC(=O)CC1(C)OCC(C)(C)[C@H](C(=O)NCCC(=O)NCCS)O1 (stereo partly shown) [Compound 866],% increase in Glucose Uptake,10 uM (Example 973),≥30%
same,activation at 10 µM,10 uM,≥ 30%
COC(=O)CC(SCCNC(=O)CCNC(=O)[C@@H]1OP(=O)(N[C@@H](C)C(=O)OC)OCC1(C)C)C(=O)OC (stereo partly shown) [Compound 370],activation at 50 µM,50 uM (Example 969),≥ 30%
COC(=O)CC1(C)OCC(C)(C)[C@H](C(=O)NCCC(=O)NCCSC(=O)CCC(=O)O)O1 (stereo partly shown) [Compound 609],activation at 10 µM,10 uM,≥ 10%
same,% increase in Glucose Uptake,concentration tested 10 uM,≥10%
CCOC(=O)CCC(=O)CC(=O)CC(=O)SCCNC(=O)CCNC(=O)[C@@H]1OP(=O)(N[C@@H](C)C(=O)OC)OCC1(C)C (stereo partly shown) [Compound 213],activation at 50 µM,50 uM (Example 970),≥ 30%
